PMC7048285, “Lack of an association between clinical INSTI-related body weight gain and direct interference with MC4 receptor (MC4R), a key central regulator of body weight” (PLoS ONE, 2020)

Experiments:
[1] = target: T1, human recombinant melanocortin MC4 receptor (Homo sapiens, UniProt P32245); test: Functional cellular cAMP TR-FRET assay, antagonist mode (inhibition of 10 nM NDP-α-MSH response); assay type: cell-based; details: for Antagonist Fold-margin on human Cmax (unbound): antagonist IC50 divided by clinical Cmax (unbound)
T1 construct: host or cells: frozen, irradiated CHO-K1 cells

rats = details: daily oral, 26 weeks, AUC 16- to 30-fold clinical exposure at 50 mg; cited from earlier work
[2] = target: T1, human recombinant melanocortin MC4 receptor; test: Functional cellular cAMP TR-FRET assay, agonist mode; assay type: cell-based; details: for Agonist Fold-margin on human Cmax (unbound): agonist IC50 divided by clinical Cmax (unbound); for IC50: cAMP increase relative to 3 μM NDP-α-MSH control, CHO-K1 cells
cynomolgous monkeys = details: daily oral, 39 weeks, AUC 16- to 30-fold clinical exposure at 50 mg; cited from earlier work
human MC4R [3] = target: T2, human MC4R (Homo sapiens, UniProt P32245); test: Biochemical radioligand binding assay ([125I]NDP-α-MSH) on membranes of transfected CHO cells; parameters: host or cells: CHO cells (membrane homogenates); details: for % inhibition of binding at 100 µM: 100 µM test compound, % inhibition of [125I]NDP-α-MSH specific binding; for IC50: radioligand binding, 0.05 nM [125I]NDP-α-MSH, 8 concentrations
mice = details: daily oral, 4 weeks, AUC 16- to 30-fold clinical exposure at 50 mg; cited from earlier work
[4] = Human clinical Cmax at recommended clinical dosage; assay type: in vivo; details: unbound (protein-free)
[5] = read-out: Human efficacious Cmax; total plasma, at recommended clinical dosage; cited from earlier work
[6] = human plasma; cited from earlier work
human MC4R [7] = target: T2, human MC4R; parameters: method as in earlier work; details: 10 μM; previously reported; cited from earlier work

T1 sequence (P32245 whole entry): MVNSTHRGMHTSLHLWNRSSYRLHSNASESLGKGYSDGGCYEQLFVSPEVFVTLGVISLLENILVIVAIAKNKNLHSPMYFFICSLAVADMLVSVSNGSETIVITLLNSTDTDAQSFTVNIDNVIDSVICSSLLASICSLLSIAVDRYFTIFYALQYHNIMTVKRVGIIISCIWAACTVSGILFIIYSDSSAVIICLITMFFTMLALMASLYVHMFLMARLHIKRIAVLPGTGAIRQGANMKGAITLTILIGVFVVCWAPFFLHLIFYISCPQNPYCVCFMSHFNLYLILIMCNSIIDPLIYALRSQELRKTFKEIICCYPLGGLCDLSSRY
T2 sequence (P32245 whole entry): as above

| IC50 [1] [µM] | Agonist Fold-margin on human Cmax (unbound) [2] [fold] | IC50 [2] [µM] | % inhibition of binding at 100 µM (human MC4R [3]) [%] | IC50 (human MC4R [3]) [µM] | Human efficacious unbound Cmax [4] [µM] | Antagonist Fold-margin on human Cmax (unbound) [1] [fold] | fold more potent in MC4R antagonism than DTG ([1]; EVG versus DTG) | IC50 ([1]; inhibition of 10 nM NDP-α-MSH induced cAMP response, CHO-K1 cells) [µM] | Molecule | effects on body weight gain (rats) | effects on body weight gain (cynomolgous monkeys) | effects on body weight gain (mice) | Cmax [5] [µM] | % unbound [6] [%] | inhibition binding value (human MC4R [7]) [%] |
| --- | --- | --- | --- | --- | --- | --- | --- | --- | --- | --- | --- | --- | --- | --- | --- |
| > 100 | >2900 | > 100 | 89 | 4.9 | 0.034 |  |  |  | O=C(NCc1c(F)cc(F)cc1F)c1cn2c(c(O)c1=O)C(=O)N1[C@H]3CC[C@H](C3)O[C@@H]1C2 [BIC, bictegravir] | no effects on body weight gain | no effects on body weight gain | no effects on body weight gain | 13.7 | 0.25 |  |
| > 30 | >1200 | > 30 | 86 | 0.46 | 0.025 | >1200 |  |  | C[C@H]1CO[C@@H]2Cn3cc(C(=O)NCc4ccc(F)cc4F)c(=O)c(O)c3C(=O)N12 [CAB, cabotegravir] |  |  |  | 15.7 | 0.16 |  |
| 69.4 | >1600 | > 100 | 91 | 1.7 | 0.062 | 1120 |  |  | C[C@@H]1CCO[C@H]2Cn3cc(C(=O)NCc4ccc(F)cc4F)c(=O)c(O)c3C(=O)N12 [DTG, dolutegravir] |  |  |  | 8.8 | 0.7 | 64 |
| 2.75 | >13000 | > 300 | 56 | 13 | 0.0225 | 120 | approximately 25 fold |  | COc1cc2c(cc1Cc1cccc(Cl)c1F)c(=O)c(C(=O)O)cn2[C@H](CO)C(C)C [EVG, elvitegravir] |  |  |  | 4.7 | 0.48 |  |
|  |  |  |  |  |  |  |  | 0.012 | agouti-related protein (SSRRCVRLHESCLGQQVPCCDPCATCYCRFFNAFCYCRKLGTAMNPCSRT; UniProt O00253 83-132, looked up) [AgRP] |  |  |  |  |  |  |

| Molecule | IC50 [1] [µM] | Agonist Fold-margin on human Cmax (unbound) [2] [fold] | IC50 [2] [µM] | % inhibition of binding at 100 µM (human MC4R [3]) [%] | IC50 (human MC4R [3]) [µM] | Human efficacious unbound Cmax [4] [µM] | Antagonist Fold-margin on human Cmax (unbound) [1] [fold] | fold more potent in MC4R antagonism than DTG ([1]; EVG versus DTG) | IC50 ([1]; inhibition of 10 nM NDP-α-MSH induced cAMP response, CHO-K1 cells) [µM] | effects on body weight gain (rats) | effects on body weight gain (cynomolgous monkeys) | effects on body weight gain (mice) | Cmax [5] [µM] | % unbound [6] [%] | inhibition binding value (human MC4R [7]) [%] |
| --- | --- | --- | --- | --- | --- | --- | --- | --- | --- | --- | --- | --- | --- | --- | --- |
| Cc1nnc(C(=O)NC(C)(C)c2nc(C(=O)NCc3ccc(F)cc3)c(O)c(=O)n2C)o1 [RAL, raltegravir] | > 300 |  | > 300 | 55 | 78 |  |  |  |  |  |  |  | 15.7 |  |  |
